Numbers after ± are expanded uncertainties.
Conditions: Liquid

Molecule `CCCCn1cc[n+](C)c1.F[B-](F)(F)F` [1-butyl-3-methylimidazolium tetrafluoroborate] has a mass density (239.75 K, 1875.4 kPa) of 1243.62 ± 0.78 kg/m3, a mass density (244.15 K, 9187.2 kPa) of 1243.32 ± 0.82 kg/m3 and a mass density (244.15 K, 30106 kPa) of 1251.69 ± 1 kg/m3. The mass density (250.8 K, 41033 kPa) was 1251.23 ± 1.1 kg/m3, the mass density (251.15 K, 20631 kPa) was 1242.83 ± 0.9 kg/m3 and the mass density (251.62 K, 1431.5 kPa) was 1234.33 ± 0.76 kg/m3. For the same molecule, the mass density (256.79 K, 51047 kPa) was 1250.8 ± 1.3 kg/m3, the mass density (257.25 K, 10286 kPa) was 1233.95 ± 0.8 kg/m3 and the mass density (257.26 K, 30540 kPa) was 1242.41 ± 1 kg/m3. It also gave a mass density (262.28 K, 59764 kPa) of 1250.41 ± 1.4 kg/m3, a mass density (263.49 K, 40569 kPa) of 1241.97 ± 1.1 kg/m3 and a mass density (263.7 K, 20360 kPa) of 1233.5 ± 0.88 kg/m3. For the same molecule, the mass density (264.47 K, 1197.4 kPa) was 1225.08 ± 0.75 kg/m3, the mass density (269.79 K, 50298 kPa) was 1241.52 ± 1.2 kg/m3 and the mass density (270.25 K, 9963.8 kPa) was 1224.68 ± 0.78 kg/m3. The mass density (270.25 K, 30434 kPa) was 1233.04 ± 0.97 kg/m3, the mass density (275.57 K, 59083 kPa) was 1241.11 ± 1.4 kg/m3 and the mass density (276.95 K, 19845 kPa) was 1224.21 ± 0.86 kg/m3. The mass density (276.97 K, 40555 kPa) was 1232.57 ± 1.1 kg/m3, the mass density (278.13 K, 1660 kPa) was 1215.35 ± 0.74 kg/m3 and the mass density (283.48 K, 50231 kPa) was 1232.1 ± 1.2 kg/m3. It also gave a mass density (284.06 K, 30274 kPa) of 1223.71 ± 0.97 kg/m3, a mass density (284.1 K, 10163 kPa) of 1214.93 ± 0.79 kg/m3 and a mass density (290.09 K, 59872 kPa) of 1231.63 ± 1.4 kg/m3. It also gave a mass density (291.27 K, 40686 kPa) of 1223.19 ± 1.1 kg/m3, a mass density (291.46 K, 20613 kPa) of 1214.42 ± 0.88 kg/m3 and a mass density (292.09 K, 1445.8 kPa) of 1204.99 ± 0.74 kg/m3. The mass density (292.09 K, 1940.4 kPa) was 1204.98 ± 0.74 kg/m3, the mass density (298.12 K, 105.9 kPa) was 1201.65 ± 0.74 kg/m3 and the mass density (298.12 K, 9550.8 kPa) was 1204.57 ± 0.79 kg/m3. The mass density (298.13 K, 10109 kPa) was 1204.56 ± 0.79 kg/m3, the mass density (298.14 K, 10428 kPa) was 1204.76 ± 0.79 kg/m3 and the mass density (298.14 K, 29887 kPa) was 1213.94 ± 0.99 kg/m3. The mass density (298.58 K, 50942 kPa) was 1222.67 ± 1.3 kg/m3, the mass density (305.03 K, 19306 kPa) was 1204.07 ± 0.88 kg/m3 and the mass density (305.53 K, 898.6 kPa) was 1194.9 ± 0.74 kg/m3. It also gave a mass density (305.54 K, 60508 kPa) of 1222.17 ± 1.4 kg/m3, a mass density (305.67 K, 40148 kPa) of 1213.41 ± 1.1 kg/m3 and a mass density (313.03 K, 9790.3 kPa) of 1194.22 ± 0.8 kg/m3. The mass density (313.04 K, 29821 kPa) was 1203.5 ± 1 kg/m3, the mass density (313.04 K, 30149 kPa) was 1203.7 ± 1 kg/m3 and the mass density (313.05 K, 10270 kPa) was 1194.38 ± 0.8 kg/m3. It also gave a mass density (313.06 K, 29280 kPa) of 1203.51 ± 1 kg/m3, a mass density (313.61 K, 50546 kPa) of 1212.83 ± 1.3 kg/m3 and a mass density (320.1 K, 328.6 kPa) of 1184.62 ± 0.74 kg/m3. The mass density (320.51 K, 19693 kPa) was 1193.85 ± 0.9 kg/m3, the mass density (321.4 K, 60815 kPa) was 1212.26 ± 1.4 kg/m3 and the mass density (321.61 K, 40890 kPa) was 1202.88 ± 1.2 kg/m3. For the same molecule, the mass density (327.98 K, 48935 kPa) was 1202.42 ± 1.3 kg/m3, the mass density (328.18 K, 10050 kPa) was 1184.05 ± 0.81 kg/m3 and the mass density (328.18 K, 28863 kPa) was 1193.3 ± 1 kg/m3. It also gave a mass density (328.18 K, 29052 kPa) of 1193.14 ± 1 kg/m3, a mass density (328.18 K, 29263 kPa) of 1193.3 ± 1 kg/m3 and a mass density (328.22 K, 10050 kPa) of 1184.05 ± 0.81 kg/m3. It also gave a mass density (336.35 K, 39210 kPa) of 1192.7 ± 1.2 kg/m3, a mass density (336.68 K, 20276 kPa) of 1183.44 ± 0.92 kg/m3 and a mass density (337.09 K, 59633 kPa) of 1201.76 ± 1.5 kg/m3. It also gave a mass density (344.2 K, 29113 kPa) of 1182.9 ± 1 kg/m3, a mass density (344.31 K, 48811 kPa) of 1192.12 ± 1.3 kg/m3 and a mass density (353.68 K, 59697 kPa) of 1191.42 ± 1.5 kg/m3. It also gave a mass density (354.16 K, 40617 kPa) of 1182.17 ± 1.2 kg/m3.

Source: the NIST ThermoML archive (doi:10.1021/je1007907)
